Laboratory results published in PubChem BioAssay (NCI).
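A five-concentration, 48-hour dose response in 96-well plates underlies each endpoint, interpolated linearly between surrounding concentrations. At the GI50, growth is halved. TGI denotes the concentration required for complete inhibition of growth.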

How the values were obtained:
Assay in all cases: NCI anticancer screen, dose series, 48 h
HL-60(TB) leukemia = system: HL-60(TB) leukemia
HCT-116 colon = system: HCT-116 colon
SK-OV-3 ovarian = system: SK-OV-3 ovarian
U251 CNS = system: U251 CNS
LOX IMVI melanoma = system: LOX IMVI melanoma
K-562 leukemia = system: K-562 leukemia
CAKI-1 renal = system: CAKI-1 renal
M14 melanoma = system: M14 melanoma
SNB-75 CNS = system: SNB-75 CNS
HS 578T breast = system: HS 578T breast

Compound | TGI (HL-60(TB) leukemia) [µM] | TGI (HCT-116 colon) [µM] | TGI (SK-OV-3 ovarian) [µM] | TGI (U251 CNS) [µM] | TGI (LOX IMVI melanoma) [µM] | TGI (K-562 leukemia) [µM] | TGI (CAKI-1 renal) [µM] | TGI (M14 melanoma) [µM] | TGI (SNB-75 CNS) [µM] | TGI (HS 578T breast) [µM] | GI50 (HL-60(TB) leukemia) [nM] | GI50 (HCT-116 colon) [µM] | GI50 (SK-OV-3 ovarian) [µM] | GI50 (U251 CNS) [µM] | GI50 (SNB-75 CNS) [µM] | GI50 (LOX IMVI melanoma) [nM] | GI50 (K-562 leukemia) [nM] | GI50 (CAKI-1 renal) [µM] | GI50 (HS 578T breast) [µM] | GI50 (M14 melanoma) [nM]
O=C(Nc1ccc(I)cc1C(=O)NCCO)c1cccs1 | > 100 | > 100 | > 100 | > 100 | > 100 | > 100 | > 100 | > 100 |  |  |  |  |  |  |  |  |  |  |  | 
Cc1ccc2c(c1)nc(N)n[n+]2[O-] | > 100 | > 100 | > 100 | > 100 | > 100 | > 100 | > 100 | > 100 | > 100 | > 100 |  |  |  |  |  |  |  |  |  | 
Cc1cn(C2C=CC(COP(=O)(OCC3=CC(=O)c4ccccc4C3=O)N(C)CCCCCl)O2)c(=O)[nH]c1=O (centres undefined) | 4.41 | 26.9 | 23 | 17.7 | 8.66 | 21.1 | 25.9 | 2.84 | 11.9 | 18.6 |  |  |  |  |  |  |  |  |  | 
O=[Se]([O-])c1ccccc1.O=[Se]([O-])c1ccccc1.[OH3+].[OH3+].[Pt+2] | 5.66 | 9.5 | > 100 | 17.2 | 19.2 | 34.6 | > 26.4 |  | 33.8 |  | 2190 | 3.14 | 56.6 | 9.51 | 6.17 | 3420 | 10000 | 11 |  | 
Nc1ccccc1Nc1ccccc1C(=O)[O-].Nc1ccccc1Nc1ccccc1C(=O)[O-].[Cu+2] |  | > 100 | > 100 | > 100 |  | > 100 | > 100 | > 100 | > 100 |  |  |  |  |  |  |  |  |  |  | 
O=C(NS(=O)(=O)Nc1ccc(Cl)cc1)OCc1ccc(Cl)cc1Cl | 87.2 | 45.5 | 48.2 | 66.7 | 57.3 | > 100 |  | > 100 | > 100 | 37.5 |  |  |  |  |  |  |  |  |  | 
COc1ccc(Nc2[nH]c(C(C)=O)c(N)c2C(=S)Nc2ccccc2)cc1 | > 100 | > 100 | > 100 | > 100 | > 100 | > 100 | > 100 | 69.3 | > 100 | > 100 |  |  |  |  |  |  |  |  |  | 
CCn1cc(C(c2ccc(Cl)cc2)n2ccnc2)c2cc(Br)ccc21 (centres undefined) |  | 33.8 | 33.3 | 30.5 | 28.2 | 33.5 | 27.3 | 26.7 | 28.5 | 47.2 |  |  |  |  |  |  |  |  |  | 
COc1cc2oc(-c3ccc(O)cc3)c(OC3OC(C)C(O)C(O)C3O)c(=O)c2c(O)c1OC (centres undefined) | > 100 | > 100 | > 100 | > 100 | > 100 | > 100 | > 100 | > 100 | > 100 | > 100 |  |  |  |  |  |  |  |  |  | 
Nc1n[nH]c(=O)[nH]1 | > 100 | > 100 | > 100 | > 100 | > 100 | > 100 | > 100 |  | > 100 |  |  |  |  |  |  |  |  |  |  | 
N#Cc1c(NC(=S)NC(=O)c2ccccc2)nc2c(c1-c1ccccc1)CCC2 | > 100 | > 100 | > 100 | > 100 | > 100 | > 100 | > 100 | > 100 | > 100 | > 100 |  |  |  |  |  |  |  |  |  | 
C=CC(=O)Nc1cccc(-c2nc(SC)nc(Nc3ccccc3OC)c2C#N)c1 | 13 |  | 26.9 |  |  | 5.62 | 4.3 | 5.64 | 4.35 | 6.61 | 2530 |  | 6.09 |  | 1.5 |  | 2030 | 1.71 | 2.34 | 2220
OCC1CCCC(n2cnc3c(=S)nc[nH]c32)O1 (centres undefined) |  | > 100 | > 100 | > 100 | > 100 | > 100 | > 100 | > 100 | > 100 | > 100 |  |  |  |  |  |  |  |  |  | 
O=C1CC(=O)N(c2ccccc2)N1/C(=C/c1ccccc1)c1ccccc1 |  | 32 | 76.5 | 27.7 | 3.06 | > 100 | 33.7 | 46.6 | 83.2 | 45.4 |  |  |  |  |  |  |  |  |  | 
Cc1[nH]c(/C=C2\C(=O)Nc3ccc(S(=O)(=O)Cc4c(Cl)cccc4Cl)cc32)c(C)c1C(=O)N1CCC[C@@H]1CN1CCCC1 | 5.49 |  | 59.1 |  | 3.22 | > 100 | 13.6 | 2.92 |  | 43.9 | 1970 |  | 22.4 |  |  | 1730 | 1630 | 5.05 | 7.72 | 1500
O=C(O)c1ccc(NC(c2ccccc2)c2ccc3cccnc3c2O)cc1 (centres undefined) | 10.4 | > 100 | > 100 | > 41.2 | > 57.6 | > 49.8 | 59.2 | > 85.5 | 56.7 | > 73.7 |  |  |  |  |  |  |  |  |  | 
CCC(=O)C(c1ccccc1)c1ccccn1 (centres undefined) | > 100 | > 100 | > 100 | > 100 | > 100 |  | > 100 | > 100 | > 100 | > 100 |  |  |  |  |  |  |  |  |  | 
CC(C)CC(N)C(=O)OCN1C(=O)C2C3C=CC(C2C1=O)C1C2C(=O)N(COC(=O)C(N)CC(C)C)C(=O)C2C31 (centres undefined) | 65.2 | > 60.5 | > 100 | > 100 | > 58.1 | > 100 | > 100 | > 100 | > 100 |  |  |  |  |  |  |  |  |  |  | 
COC1OC(=O)[C@H]2O[N+]([O-])=C(C)[C@@H]12 (some centres undefined) | > 100 | > 100 | > 100 | > 100 | > 100 | > 100 | > 100 |  | > 100 |  |  |  |  |  |  |  |  |  |  | 
